Laboratory results from ChEMBL document CHEMBL4680338, “Sinomenine inhibits hypoxia induced breast cancer side population cells metastasis by PI3K/Akt/mTOR pathway” (Bioorg Med Chem, 2021).
Active and inactive are the calls of the source. The rule behind the calls is not given here.

Experiments:
MDA-MB-231 [1] = assay: Cytotoxicity against human MDA-MB-231 side population cells assessed as reduction in cell viability at 0.25 to 1 mM measured after 24 hrs under hypoxia condition by CCK-8 assay; type: functional, cell-based; details: dose 0.25-1 mM
MCF7 [2] = assay: Decrease in hypoxia-induced cell invasion in human MCF7 side population cells at 0.25 to 1 mM measured after measured after 24 hrs by crystal violet staining based transwell assay; type: functional; details: dose 0.25-1 mM
MCF7 [3] = assay: Cytotoxicity against human MCF7 side population cells assessed as reduction in cell viability at 0.25 to 1 mM measured after 24 hrs by CCK-8 assay; type: functional, cell-based; details: dose 0.25-1 mM
MDA-MB-231 [4] = assay: Suppression of hypoxia-induced upregulation of MMP2 expression in human MDA-MB-231 cells at 0.25 to 1 mM by Western blot analysis; type: functional, cell-based; details: dose 0.25-1 mM
MDA-MB-231 [5] = assay: Cytotoxicity against human MDA-MB-231 cells assessed as reduction in cell viability at 1 to 4 mM measured after 24 hrs under normoxia condition by CCK-8 assay; type: functional, cell-based; details: dose 1-4 mM
MDA-MB-231 [6] = assay: Suppression of hypoxia-induced upregulation of MMP9 expression in human MDA-MB-231 cells at 1 nM measured after 24 hrs in presence of IGF-1 by Western blot analysis; type: functional, cell-based
MDA-MB-231 [7] = assay: Cytotoxicity against human MDA-MB-231 side population cells assessed as reduction in cell viability at 2 to 4 mM measured after 24 hrs under normoxia condition by CCK-8 assay; type: functional, cell-based; details: dose 2-4 mM
MDA-MB-231 [8] = assay: Cytotoxicity against human MDA-MB-231 side population cells assessed as reduction in cell viability at 0.25 to 1 mM measured after 24 hrs by CCK-8 assay; type: functional, cell-based; details: dose 0.25-1 mM
MCF7 [9] = assay: Cytotoxicity against human MCF7 side population cells assessed as reduction in cell viability at 2 to 4 mM measured after 24 hrs under hypoxia condition by CCK-8 assay; type: functional, cell-based; details: dose 2-4 mM
MDA-MB-231 [10] = assay: Cytotoxicity against human MDA-MB-231 side population cells assessed as reduction in cell viability at 2 to 4 mM measured after 24 hrs under hypoxia condition by CCK-8 assay; type: functional, cell-based; details: dose 2-4 mM
MDA-MB-231 [11] = assay: Suppression of hypoxia-induced upregulation of N-cadherin expression in human MDA-MB-231 cells at 0.25 to 1 mM by Western blot analysis; type: functional, cell-based; details: dose 0.25-1 mM
MDA-MB-231 [12] = assay: Decrease in hypoxia-induced cell invasion in human MDA-MB-231 side population cells at 0.25 to 1 mM measured after measured after 24 hrs by crystal violet staining based transwell assay; type: functional; details: dose 0.25-1 mM
MDA-MB-231 [13] = assay: Reversal of hypoxia-induced downregulation of E-cadherin expression in human MDA-MB-231 cells at 0.25 to 1 mM by Western blot analysis; type: functional, cell-based; details: dose 0.25-1 mM
MDA-MB-231 [14] = assay: Inhibition of hypoxia-induced activation of PI3K/Akt/mTOR signaling in human MDA-MB-231 side population cells assessed as decrease in phosphorylated PI3K level at 0.25 to 1 mM measured after 24 hrs by Western blot analysis; details: dose 0.25-1 mM
MDA-MB-231 [15] = assay: Suppression of hypoxia-induced upregulation of vimentin expression in human MDA-MB-231 cells at 0.25 to 1 mM by Western blot analysis; type: functional, cell-based; details: dose 0.25-1 mM
MCF7 [16] = assay: Cytotoxicity against human MCF7 side population cells assessed as reduction in cell viability at 0.25 to 1 mM measured after 24 hrs under hypoxia condition by CCK-8 assay; type: functional, cell-based; details: dose 0.25-1 mM
MDA-MB-231 [17] = assay: Suppression of hypoxia-induced upregulation of MMP2 expression in human MDA-MB-231 side population cells at 0.25 to 1 mM by Western blot analysis; type: functional; details: dose 0.25-1 mM
MCF7 [18] = assay: Cytotoxicity against human MCF7 cells assessed as reduction in cell viability at 0.25 to 1 mM measured after 24 hrs under hypoxia condition by CCK-8 assay; type: functional, cell-based; details: dose 0.25-1 mM
MDA-MB-231 [19] = assay: Inhibition of hypoxia-induced activation of PI3K/Akt/mTOR signaling in human MDA-MB-231 side population cells at 1 nM measured after 24 hrs in presence of IGF-1 by Western blot analysis
MCF7 [20] = assay: Cytotoxicity against human MCF7 cells assessed as reduction in cell viability at 1 to 4 mM measured after 24 hrs under normoxia condition by CCK-8 assay; type: functional, cell-based; details: dose 1-4 mM
MDA-MB-231 [21] = assay: Suppression of hypoxia-induced upregulation of MMP9 expression in human MDA-MB-231 cells at 0.25 to 1 mM by Western blot analysis; type: functional, cell-based; details: dose 0.25-1 mM
MDA-MB-231 [22] = assay: Inhibition of hypoxia-induced activation of PI3K/Akt/mTOR signaling in human MDA-MB-231 side population cells assessed as decrease in phosphorylated Akt level at 0.25 to 1 mM measured after 24 hrs by Western blot analysis; details: dose 0.25-1 mM
MDA-MB-231 [23] = assay: Suppression of hypoxia-induced upregulation of N-cadherin expression in human MDA-MB-231 side population cells at 0.25 to 1 mM by Western blot analysis; type: functional; details: dose 0.25-1 mM
MDA-MB-231 [24] = assay: Cytotoxicity against human MDA-MB-231 cells assessed as reduction in cell viability at 0.25 to 1 mM measured after 24 hrs under hypoxia condition by CCK-8 assay; type: functional, cell-based; details: dose 0.25-1 mM
MCF7 [25] = assay: Cytotoxicity against human MCF7 side population cells assessed as reduction in cell viability at 2 to 4 mM measured after 24 hrs under normoxia condition by CCK-8 assay; type: functional, cell-based; details: dose 2-4 mM
MDA-MB-231 [26] = assay: Suppression of hypoxia-induced upregulation of MMP2 expression in human MDA-MB-231 cells at 1 nM measured after 24 hrs in presence of IGF-1 by Western blot analysis; type: functional, cell-based
MDA-MB-231 [27] = assay: Inhibition of hypoxia-induced cell invasion in human MDA-MB-231 cells at 0.25 to 1 mM measured after measured after 24 hrs by crystal violet staining based transwell assay; type: functional; details: dose 0.25-1 mM
MDA-MB-231 [28] = assay: Suppression of hypoxia-induced upregulation of MMP9 expression in human MDA-MB-231 side population cells at 0.25 to 1 mM by Western blot analysis; type: functional; details: dose 0.25-1 mM
MDA-MB-231 [29] = assay: Suppression of hypoxia-induced upregulation of vimentin expression in human MDA-MB-231 side population cells at 0.25 to 1 mM by Western blot analysis; type: functional; details: dose 0.25-1 mM
MDA-MB-231 [30] = assay: Reversal of hypoxia-induced downregulation of E-cadherin expression in human MDA-MB-231 side population cells at 0.25 to 1 mM by Western blot analysis; type: functional; details: dose 0.25-1 mM
MDA-MB-231 [31] = assay: Inhibition of hypoxia-induced activation of PI3K/Akt/mTOR signaling in human MDA-MB-231 side population cells assessed as decrease in phosphorylated mTOR level at 0.25 to 1 mM measured after 24 hrs by Western blot analysis; details: dose 0.25-1 mM
MCF7 [32] = assay: Inhibition of hypoxia-induced cell invasion in human MCF7 cells at 0.25 to 1 mM measured after measured after 24 hrs by crystal violet staining based transwell assay; type: functional; details: dose 0.25-1 mM

COC1=C[C@@H]2[C@@H]3Cc4ccc(OC)c(O)c4[C@]2(CCN3C)CC1=O
Activity (MDA-MB-231 [1]): inactive | Activity (MCF7 [2]): Active | Activity (MCF7 [3]): inactive | Activity (MDA-MB-231 [4]): Active | Activity (MDA-MB-231 [5]): Active | Activity (MDA-MB-231 [6]): inactive | Activity (MDA-MB-231 [7]): Active | Activity (MDA-MB-231 [8]): inactive | Activity (MCF7 [9]): Active | Activity (MDA-MB-231 [10]): Active | Activity (MDA-MB-231 [11]): Active | Activity (MDA-MB-231 [12]): Active | Activity (MDA-MB-231 [13]): Active | inhibition (MDA-MB-231 [14]): Active | Activity (MDA-MB-231 [15]): Active | Activity (MCF7 [16]): inactive | Activity (MDA-MB-231 [17]): Active | Activity (MCF7 [18]): inactive | inhibition (MDA-MB-231 [19]): inactive | Activity (MCF7 [20]): Active | Activity (MDA-MB-231 [21]): Active | inhibition (MDA-MB-231 [22]): Active | Activity (MDA-MB-231 [23]): Active | Activity (MDA-MB-231 [24]): inactive | Activity (MCF7 [25]): Active | Activity (MDA-MB-231 [26]): inactive | inhibition (MDA-MB-231 [27]): Active | Activity (MDA-MB-231 [28]): Active | Activity (MDA-MB-231 [29]): Active | Activity (MDA-MB-231 [30]): Active | inhibition (MDA-MB-231 [31]): Active | inhibition (MCF7 [32]): Active
